This passage reports IC50 and viability results from ChEMBL document CHEMBL3853288, “Biginkgosides A-I, Unexpected Minor Dimeric Flavonol Diglycosidic Truxinate and Truxillate Esters from Ginkgo biloba Leaves and Their Antineuroinflammatory and Neuroprotective Activities” (J Nat Prod, 2016).

A short description of data set [1]: Antineuroinflammatory activity in mouse BV2 cells assessed as inhibition of LPS-induced NO production incubated for 4 hrs followed by LPS stimulation for 24 hrs by Griess assay. The format is functional, cell-based. To be noted: BV-2. In general terms: Griess reagent forms a coloured azo dye with nitrite.
For data set [2], the system named is SH-SY5Y. In words: Neuroprotection against amyloid beta (25 to 35)-induced cell toxicity in human SH-SY5Y cells assessed as cell viability at 10 uM incubated for 2 hrs followed by amyloid beta (25 to 35) treatment for 24 hrs by MTT assay (reference value: 62.4 +/- 3.5%). The following applies: read-out: Activity. The data set is classed as functional. On the technique in general: Tetrazolium assays rely on reduction of a dye to a coloured formazan, in cell work by metabolically active cells.

Data set [3] relates to SH-SY5Y. In words: Neuroprotection against amyloid beta (25 to 35)-induced cell toxicity in human SH-SY5Y cells assessed as cell viability at 1 uM incubated for 2 hrs followed by amyloid beta (25 to 35) treatment for 24 hrs by MTT assay (reference value: 62.4 +/- 3.5%). The data set is classed as functional. To be noted: read-out: Activity.
The nature of data set [4]: Cytotoxicity against LPS-stimulated mouse BV2 cells assessed as cell viability at 20 uM incubated for 4 hrs followed by LPS stimulation for 24 hrs by MTT assay. The data set is classed as toxicity, BV-2. To be noted: read-out: Activity.

Where only a bound is given, the exact number is not on record here.

A word on the IC50: it is the concentration that gives 50% inhibition. On to `C[C@@H]1O[C@@H](Oc2c(-c3ccc(O)c(O)c3)oc3cc(O)cc(O)c3c2=O)[C@H](O[C@@H]2O[C@H](COC(=O)[C@H]3[C@H](c4ccc(O)cc4)[C@@H](C(=O)OC[C@H]4O[C@@H](O[C@H]5[C@H](Oc6c(-c7ccc(O)c(O)c7)oc7cc(O)cc(O)c7c6=O)O[C@@H](C)[C@H](O)[C@H]5O)[C@H](O)[C@@H](O)[C@@H]4O)[C@@H]3c3ccc(O)cc3)[C@@H](O)[C@H](O)[C@H]2O)[C@H](O)[C@H]1O`, for which the half-maximal inhibitory concentration (IC50) in data set [1] was above 100 µM.
Same read-out and setting: the value for `C[C@@H]1O[C@@H](Oc2c(-c3ccc(O)cc3)oc3cc(O)cc(O)c3c2=O)[C@H](O[C@@H]2O[C@H](COC(=O)[C@@H]3[C@@H](C(=O)OC[C@H]4O[C@@H](O[C@H]5[C@H](Oc6c(-c7ccc(O)cc7)oc7cc(O)cc(O)c7c6=O)O[C@@H](C)[C@H](O)[C@H]5O)[C@H](O)[C@@H](O)[C@@H]4O)[C@@H](c4ccc(O)cc4)[C@@H]3c3ccc(O)cc3)[C@@H](O)[C@H](O)[C@H]2O)[C@H](O)[C@H]1O` was above 100 µM; that for `C[C@@H]1O[C@@H](Oc2c(-c3ccc(O)cc3)oc3cc(O)cc(O)c3c2=O)[C@H](O[C@@H]2O[C@H](COC(=O)[C@H]3[C@H](C(=O)OC[C@H]4O[C@@H](O[C@H]5[C@H](Oc6c(-c7ccc(O)cc7)oc7cc(O)cc(O)c7c6=O)O[C@@H](C)[C@H](O)[C@H]5O)[C@H](O)[C@@H](O)[C@@H]4O)[C@@H](c4ccc(O)cc4)[C@@H]3c3ccc(O)cc3)[C@@H](O)[C@H](O)[C@H]2O)[C@H](O)[C@H]1O` was above 100 µM.
As to `C[C@@H]1O[C@@H](Oc2c(-c3ccc(O)cc3)oc3cc(O)cc(O)c3c2=O)[C@H](O[C@@H]2O[C@H](COC(=O)[C@@H]3[C@H](C(=O)OC[C@H]4O[C@@H](O[C@H]5[C@H](Oc6c(-c7ccc(O)cc7)oc7cc(O)cc(O)c7c6=O)O[C@@H](C)[C@H](O)[C@H]5O)[C@H](O)[C@@H](O)[C@@H]4O)[C@@H](c4ccc(O)cc4)[C@@H]3c3ccc(O)cc3)[C@@H](O)[C@H](O)[C@H]2O)[C@H](O)[C@H]1O`, in data set [1], the half-maximal inhibitory concentration (IC50) was above 100 µM.
`O=C(O[C@@H]1Cc2c(O)cc(O)cc2O[C@@H]1c1cc(O)c(O)c(O)c1)c1cc(O)c(O)c(O)c1` [EPIGALOCATECHIN GALLATE]: in the data set with SH-SY5Y [2], the viability at 10 µM was 99%.
For `C[C@@H]1O[C@@H](Oc2c(-c3ccc(O)c(O)c3)oc3cc(O)cc(O)c3c2=O)[C@H](O[C@@H]2O[C@H](COC(=O)[C@@H]3[C@H](C(=O)OC[C@H]4O[C@@H](O[C@H]5[C@H](Oc6c(-c7ccc(O)c(O)c7)oc7cc(O)cc(O)c7c6=O)O[C@@H](C)[C@H](O)[C@H]5O)[C@H](O)[C@@H](O)[C@@H]4O)[C@@H](c4ccc(O)cc4)[C@H]3c3ccc(O)cc3)[C@@H](O)[C@H](O)[C@H]2O)[C@H](O)[C@H]1O`, the IC50 in data set [1] is above 100 µM.
On to `C[C@@H]1O[C@@H](Oc2c(-c3ccc(O)cc3)oc3cc(O)cc(O)c3c2=O)[C@H](O[C@@H]2O[C@H](COC(=O)[C@H]3[C@H](C(=O)OC[C@H]4O[C@@H](O[C@H]5[C@H](Oc6c(-c7ccc(O)c(O)c7)oc7cc(O)cc(O)c7c6=O)O[C@@H](C)[C@H](O)[C@H]5O)[C@H](O)[C@@H](O)[C@@H]4O)[C@@H](c4ccc(O)cc4)[C@@H]3c3ccc(O)cc3)[C@@H](O)[C@H](O)[C@H]2O)[C@H](O)[C@H]1O`, for which the IC50 in data set [1] was above 100 µM. For the same molecule, the viability at 1 µM in the data set on SH-SY5Y [3] is 96.7%.
As to `C[C@@H]1O[C@@H](Oc2c(-c3ccc(O)cc3)oc3cc(O)cc(O)c3c2=O)[C@H](O[C@@H]2O[C@H](COC(=O)[C@H]3[C@H](c4ccc(O)cc4)[C@@H](C(=O)OC[C@H]4O[C@@H](O[C@H]5[C@H](Oc6c(-c7ccc(O)cc7)oc7cc(O)cc(O)c7c6=O)O[C@@H](C)[C@H](O)[C@H]5O)[C@H](O)[C@@H](O)[C@@H]4O)[C@@H]3c3ccc(O)cc3)[C@@H](O)[C@H](O)[C@H]2O)[C@H](O)[C@H]1O`, in data set [1], the IC50 was determined as 17.2 µM. Moreover, in data set [4], the viability at 24 h, 20 µM came out at 97.7%.
Regarding `C[C@@H]1O[C@@H](Oc2c(-c3ccc(O)c(O)c3)oc3cc(O)cc(O)c3c2=O)[C@H](O[C@@H]2O[C@H](COC(=O)[C@H]3[C@H](C(=O)OC[C@H]4O[C@@H](O[C@H]5[C@H](Oc6c(-c7ccc(O)c(O)c7)oc7cc(O)cc(O)c7c6=O)O[C@@H](C)[C@H](O)[C@H]5O)[C@H](O)[C@@H](O)[C@@H]4O)[C@@H](c4ccc(O)cc4)[C@@H]3c3ccc(O)cc3)[C@@H](O)[C@H](O)[C@H]2O)[C@H](O)[C@H]1O`, the IC50 in data set [1] stood at 2.91 µM. The viability at 24 h, 20 µM in data set [4] was 99%.
On to `CNC(=N)NCCC[C@H](N)C(=O)O` [TILARGININE], for which the viability at 24 h, 20 µM in data set [4] stood at 98.5%.
For the molecule `C[C@@H]1O[C@@H](Oc2c(-c3ccc(O)cc3)oc3cc(O)cc(O)c3c2=O)[C@H](O[C@@H]2O[C@H](COC(=O)[C@@H]3[C@H](C(=O)OC[C@H]4O[C@@H](O[C@H]5[C@H](Oc6c(-c7ccc(O)cc7)oc7cc(O)cc(O)c7c6=O)O[C@@H](C)[C@H](O)[C@H]5O)[C@H](O)[C@@H](O)[C@@H]4O)[C@@H](c4ccc(O)cc4)[C@H]3c3ccc(O)cc3)[C@@H](O)[C@H](O)[C@H]2O)[C@H](O)[C@H]1O`, the IC50 in data set [1] was above 100 µM.
